# In patent EP0640341A1, “Sustained release pharmaceutical composition and process for producing same” (priority 1993, dated 1995):
# Legend:
# [1] = Solubility in Japanese pharmacopoeia test liquids; assay type: physicochemical
# Source text: For example, the above pyrimidinedione derivative is a basic drug, and has general characteristics that it is easily soluble on an acid side of a pH but very little soluble on a neutral side or an alkaline side. That is to say, in the digestive organs, the pyrimidinedione derivative is easily dissolved and released in the stomach owing to an acid therein, but the dissolution and the release of the pyrimidinedione derivative deteriorate in the intestines because the intestines are a neutral or an alkaline state. Furthermore, the deterioration of the solubility of the pyrimidinedione derivative with the increase of the pH is remarkable.
# [2] = Oral administration test of the drug, concentration in blood
# Source text: For example, in Example 18 of Japanese Patent Application Laid-open No. 173873/1991, the pyrimidinedione derivative is sufficiently mixed with lactose and starch, and the resultant mixture is then filled into capsules to manufacture the desired drug. The present inventors actually carried out an oral administration test for the drug.
compound,measurement,setting,value
"Cn1c(NCCN(CCO)CCCc2ccc([N+](=O)[O-])cc2)cc(=O)n(C)c1=O [the pyrimidinedione derivative, 1,3-dimethyl-6-{2-{N-(2-hydroxyethyl)-N-[3-(4-nitrophenyl)propyl]amino}ethylamino}-2,4-(1H,3H)-pyrimidinedione]",solubility,"[1]; jp test liquid no. 1, Japanese pharmacopoeia test liquid No. 1 (pH = 1.2)",≥ 1000 mg/mL
same,solubility,"[1]; jp test liquid no. 2, Japanese pharmacopoeia test liquid No. 2 (pH = 6.8)",≤ 0.1 mg/mL
same,Tmax,[2],≤ 30 min
